US20160038505A1, “METHODS AND COMPOSITIONS FOR TREATING IMPULSE CONTROL DISORDER, ANXIETY-RELATED DISORDERS, VIOLENCE AND/OR ANGER, OR REGULATING FOOD INTAKE” (priority 2014, published 2016)
“Also recorded” adds a separate entry of the source.

How the values were obtained:
dogs = test: Single dose (acute oral) toxicity/TK study in dogs; type: in vivo, dog
[1] = Plasma toxicokinetics in dogs, 14 day repeat dose study; type: in vivo, dog
Method: Noribogaine HCl was administered to groups of 4 male and 4 female dogs by single oral gavage daily for 14 days at doses of 0, 0.5, 1.0 and 5.0 mg/kg/day. An additional group of 4 male and 4 female dogs received either the vehicle control or 5.0 mg/kg/day for 14 days and were held for an additional 28 days after cessation of dosing to assess recovery from any potential drug-induced changes. The study was conducted under GLP guidelines and included comprehensive examinations of clinical signs, body weight, clinical pathology parameters, ophthalmologic examinations, ECG recordings and analyses of plasma for bioanalytical measurement of drug levels at appropriate intervals during the study. At the termination of the dosing phase and at the termination of the recovery phase, all dogs were subjected to a complete post-mortem examination including gross examination of major organs and histologic examination of an extensive list of tissues. Additional sections of brain were obtained from cerebrum, cerebellus, brain stem and spinal cord and examined histologically to evaluate potential effects on brain histopathology. In addition, these sections were examined with immunohistochemical stains for GFAP for evidence of gliosis and Calbindin for a more comprehensive examination of cerebellar Purkinje cells.

[2] = Pharmacokinetics of noribogaine in healthy male volunteers (plasma, urine, LCMSMS)
Sprague-Dawley rat = test: Food maintained responding test, regulation of food intake in rats; type: in vivo
[3] = dog, plasma, po, female dogs, 5.0 mg/kg, D 14
[4] = 30 mg single oral dose, plasma, mean (SD), n = 6

## CC[C@H]1CC2C[C@H]3c4[nH]c5ccc(O)cc5c4CCN(C2)C13 [noribogaine]
dogs; 5 mg/kg
  findings at NOAEL dose: only transient reduction in food consumption in one dog
dogs; 10 mg/kg, from 20 minutes until 3 h 40 m post-dose
  clinical signs: Convulsions and other CNS-related clinical signs
dogs; 5 (n=2) or 10 (n=2) mg/kg oral
  mortality: no mortality occurred
[1]; dog, plasma, po, female dogs, 0.5 mg/kg, D 1
  Cmax at 1 day of dosing: 25.3 ng/mL
[1]; dog, plasma, po, female dogs, 0.5 mg/kg, D 14
  Cmax at 14 day of dosing: 29.8 ng/mL
[1]; dog, plasma, po, female dogs, 1.0 mg/kg, D 1
  Cmax at 1 day of dosing: 68.5 ng/mL
[1]; dog, plasma, po, female dogs, 1.0 mg/kg, D 14
  Cmax at 14 day of dosing: 74.1 ng/mL
[1]; dog, plasma, po, female dogs, 5.0 mg/kg, D 1
  Cmax at 1 day of dosing: 691 ng/mL
[1]; [3]
  Cmax at 14 day of dosing: 683 ng/mL
  Tmax at 14 day of dosing: 0.6 h
[1]; female dogs, 0.5 mg/kg, D 1
  AUC0-24 h: 40.4 ng·h/mL
  AUC0-last: 31.5 ng·h/mL
  AUC0-∞: 44.9 ng·h/mL
  T1/2: 1.0 h
  Tmax: 0.5 h
[1]; female dogs, 0.5 mg/kg, D 14
  AUC0-24 h: 55.0 ng·h/mL
  AUC0-last: 35.4 ng·h/mL
  AUC0-∞: 45.7 ng·h/mL
  T1/2: 1.1 h
  Tmax: 1.0 h
[1]; female dogs, 1.0 mg/kg, D 1
  AUC0-24 h: 176.2 ng·h/mL
  AUC0-last: 148.9 ng·h/mL
  AUC0-∞: 165.3 ng·h/mL
  T1/2: 1.4 h
  Tmax: 0.8 h
[1]; female dogs, 1.0 mg/kg, D 14
  AUC0-24 h: 203.7 ng·h/mL
  AUC0-last: 169.0 ng·h/mL
  AUC0-∞: 197.0 ng·h/mL
  T1/2: 1.6 h
  Tmax: 0.5 h
[1]; female dogs, 5.0 mg/kg, D 1
  AUC0-24 h: 3367.9 ng·h/mL
  AUC0-last: 3367.9 ng·h/mL
  AUC0-∞: 3425.7 ng·h/mL
  T1/2: 4.3 h
[1]; female dogs, 5.0 mg/kg, D 14
  AUC0-24 h: 5951.2 ng·h/mL
  AUC0-last: 5951.2 ng·h/mL
  AUC0-∞: 6283.2 ng·h/mL
  T1/2: 5.7 h
[1]; male dogs, 0.5 mg/kg, D 1
  AUC0-24 h: 59.7 ng·h/mL
  AUC0-last: 46.6 ng·h/mL
  AUC0-∞: 67.8 ng·h/mL
  Cmax: 28.8 ng/mL
  T1/2: 1.3 h
  Tmax: 0.7 h
[1]; male dogs, 0.5 mg/kg, D 14
  AUC0-24 h: 64.5 ng·h/mL
  AUC0-last: 53.2 ng·h/mL
  AUC0-∞: 68.2 ng·h/mL
  Cmax: 29.4 ng/mL
  T1/2: 1.3 h
  Tmax: 0.7 h
[1]; male dogs, 1.0 mg/kg, D 1
  AUC0-24 h: 119.8 ng·h/mL
  AUC0-last: 102.5 ng·h/mL
  AUC0-∞: 120.8 ng·h/mL
  Cmax: 58.6 ng/mL
  T1/2: 1.2 h
  Tmax: 0.9 h
[1]; male dogs, 1.0 mg/kg, D 14
  AUC0-24 h: 210.4 ng·h/mL
  AUC0-last: 172.3 ng·h/mL
  AUC0-∞: 195.7 ng·h/mL
  Cmax: 67.6 ng/mL
  T1/2: 1.8 h
  Tmax: 0.8 h
[1]; male dogs, 5.0 mg/kg, D 1
  AUC0-24 h: 3515.0 ng·h/mL
  AUC0-last: 3515.0 ng·h/mL
  AUC0-∞: 3630.5 ng·h/mL
  Cmax: 693 ng/mL
  T1/2: 4.7 h
[1]; male dogs, 5.0 mg/kg, D 14
  AUC0-24 h: 6403.3 ng·h/mL
  AUC0-last: 6403.3 ng·h/mL
  AUC0-∞: 6961.4 ng·h/mL
  Cmax: 716 ng/mL
  T1/2: 6.5 h
  Tmax: 0.9 h
[2]; 3 mg single oral dose, plasma, mean (SD), n = 6
  CL/F: 41.4 (7.0) L/h
[2]; 10 mg single oral dose, plasma, mean (SD), n = 6
  CL/F: 42.3 (12.0) L/h
[2]; [4]
  CL/F: 46.9 (16.4) L/h
  Tmax: 1.8 (0.6) hr
[2]; 60 mg single oral dose, plasma, mean (SD), n = 6
  CL/F: 34.0 (11.4) L/h
[2]; 3-60 mg
  dose dependence of Cmax and AUC: increased linearly with dose
[2]; across dose groups 3-60 mg
  mean half-life estimates: 28 to 50 h
  time of peak concentrations after oral dosing: 2 to 3 h
  volume of distribution: 1417 to 3086 L
Sprague-Dawley rat; 25 mg/kg PO, P<0.05
  decrease in food intake: 10%
Sprague-Dawley rat; 50 mg/kg PO, P<0.001
  decrease in food intake: 25%
Sprague-Dawley rat; noribogaine 12.5 mg/kg PO 2 hours prior to test
  effect on food consumption compared to vehicle: no significant effect; also recorded: no effect on food consumption
Sprague-Dawley rat; noribogaine 25 mg/kg PO 2 hours prior to test, P<0.05
  effect on food consumption compared to vehicle: significantly decreased food consumption
Sprague-Dawley rat; noribogaine 50 mg/kg PO 2 hours prior to test, P<0.001
  effect on food consumption compared to vehicle: significantly decreased food consumption
